Experimental findings from US20040248887A1, “Inhibitors of cathepsin S” (IRM LLC, priority 2003, published 2004) are described below.

Chain of Cathepsin S (P25774 115-331, species assumed): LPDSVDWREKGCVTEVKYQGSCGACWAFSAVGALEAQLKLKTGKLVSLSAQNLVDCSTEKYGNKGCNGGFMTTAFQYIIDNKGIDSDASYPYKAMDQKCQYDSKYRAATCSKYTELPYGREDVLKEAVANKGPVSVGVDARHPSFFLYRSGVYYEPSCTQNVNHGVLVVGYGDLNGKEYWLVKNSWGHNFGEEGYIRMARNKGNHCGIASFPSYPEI

The assay deals with Cathepsin S (Homo sapiens, UniProt P25774). Description: Cathepsin S inhibition, fluorogenic peptide substrate kinetic assay. The note with it: Table II; Cathepsin S inhibition constant, pH5.5; read-out: Ki Cat. S. It counts as biochemical. From the text:
“Inhibition constant”, Ki, is the dissociation constant of the enzyme-inhibitor complex, or the reciprocal of the binding affinity of the inhibitor to the enzyme. […] The inhibited rates are then fit by nonlinear regression to the following equation: [formula]
where vo is the initial rate of substrate processing in the absence of inhibitor, v; is the initial rate of substrate processing at a concentration [I] of inhibitor, Km is the steady state Michaelis constant (Fersht, A. Structure and Mechanism in Protein Science. New York, W.H. Freeman and Company, 1999), and [S] is the concentration of competitive substrate.
The assumption being made for the classical inhibition described above is that the free inhibitor concentration is equal to the total inhibitor concentration.
The inhibition constant, Ki, can be determined from the apparent inhibition constant, Ki^app, for competitive inhibitors by using the following relationship: [formula]
The optimal substrate for cathepsin S, acetyl-histidine-proline-valine-lysine-amino carbamoyl coumarin, was identified from screening a combinatorial library of fluorogenic peptide substrates (Harris, J. L., B. J. Backes, et al., Proc Natl Acad Sci USA 2000, 97(14), 7754-9). Kinetic measurements are performed in a total reaction volume of 30 μl in 384-well microtiter plates. […] The reactions are initiated by adding the substrate, acetyl-histidine-proline-valine-lysine-amino carbamoyl coumarin, to a final concentration of 50 μM. The rate of substrate hydrolysis is measured by monitoring the increase in fluorescence at an excitation wavelength of 380 nm and an emission wavelength of 450 nm that results from cleavage of the aniline bond in the substrate by the enzyme. The apparent inhibition constants for the compounds are determined from the enzyme progress curves (Kuzmic, P., K. C. Elrod, et al., Anal Biochem 2000, 286(1), 45-50) and are then used to calculate the inhibition constants for competitive inhibitors.
Consider `O=C(N[C@@H](CC1CC1)C(=O)NCCN1CCc2cc(F)ccc21)c1ccc(-c2cccc(C(F)(F)F)c2)o1` [Compound 194, N-((S)-1-(2-(5-fluoroindolin-1-yl)ethylcarbamoyl)-2-cyclopropylethyl)-5-(3-(trifluoromethyl)phenyl)furan-2-carboxamide], for which the Ki is less than 1000 nM.

As to `C[C@@H](CN1c2ccc(F)cc2CC1(C)C)NC(=O)[C@H](CC1CCCCC1)NC(=O)C1CCOC1` (stereo partly drawn) [Compound 140, Tetrahydrofuran-3-carboxylic acid {2-cyclohexyl-1-(S)-[2-(5-fluoro-2,2-dimethyl-2,3-dihydro-indol-1-yl)-1-(S)-methyl-ethylcarbamoyl]-ethyl}-amide], the inhibition constant Ki is less than 100 nM.

Take `Cc1cccc(C(=O)N[C@@H](CC(C)C)C(=O)N[C@@H](CCC(=O)O)CN2CCc3cc(F)ccc32)c1` [Compound 43, (S,S)-5-(5-Fluoro-2,3-dihydro-indol-1-yl)-4-[4-methyl-2-(3-methyl-benzoylamino)-pentanoylamino]-pentanoic acid]: the inhibition constant (Ki) is less than 100 nM.

For `CC(C)(C)C[C@H](NC(=O)OCc1ccccc1)C(=O)N[C@@H](CC(=O)OC(C)(C)C)CN1CCc2cc(F)ccc21` [Compound 158, 3-(S)-(2-(S)-Benzyloxycarbonylamino-4,4-dimethyl-pentanoylamino)-4-(5-fluoro-2,3-dihydro-indol-1-yl)-butyric acid tert-butyl ester], the inhibition constant Ki is less than 1000 nM.

Take `C[C@@H](CNc1ccc(OC(F)(F)F)cc1)NC(=O)[C@H](CC(C)(C)C)NC(=O)C1CCOCC1` [Compound 269, Tetrahydropyran-4-carboxylic acid {3,3-dimethyl-1-(S)-[1-(S)-methyl-2-(4-trifluoromethoxy-phenylamino)-ethylcarbamoyl]-butyl}-amide]: the inhibitory constant (Ki) is less than 1000 nM.

`CC(C(=O)N[C@@H](CC1CCCCC1)C(=O)NCCN1CCc2cc(F)ccc21)c1ccc(Cl)cc1` (stereo partly drawn) [Compound 64, 2-(4-Chloro-phenyl)-N-{2-cyclohexyl-1-(S)-[2-(5-fluoro-2,3-dihydro-indol-1-yl)-ethylcarbamoyl]-ethyl}-propionamide]: the Ki is less than 100 nM.

With `CC(C(=O)N[C@@H](CC1CCCCC1)C(=O)NCCN1CCc2cc(F)ccc21)c1ccc(-c2ccccc2)c(F)c1` (stereo partly drawn) [Compound 59, N-{2-cyclohexyl-1-(S)-[2-(5-fluoro-2,3-dihydro-indol-1-yl)-ethylcarbamoyl]-ethyl}-2-(2-fluoro-biphenyl-4-yl)-propionamide], the Ki was less than 100 nM.

As to `C[C@@H](CNc1cccc(OC(F)(F)F)c1)NC(=O)[C@H](CC1CCCCC1)NC(=O)c1ccc(-c2cccc(F)c2)o1` [Compound 111, 5-(3-Fluoro-phenyl)-furan-2-carboxylic acid {2-cyclohexyl-1-(S)-[1-(S)-methyl-2-(3-trifluoromethoxy-phenylamino)-ethylcarbamoyl]-ethyl}-amide], the Ki was less than 100 nM.

With `COc1ccc(S(=O)(=O)N[C@@H](CC2CCCCC2)C(=O)NCCN2CCc3cc(F)ccc32)cc1` [Compound 239, (S)-3-Cyclohexyl-N-[2-(5-fluoro-2,3-dihydro-indol-1-yl)-ethyl]-2-(4-methoxy-benzenesulfonylamino)-propionamide], the Ki is less than 1000 nM.

Take `O=C(N[C@@H](CC1CCCCC1)C(=O)NCCN1CCc2cc(F)ccc21)c1ccc(OC2CCNCC2)cc1` [Compound 67, N-(S)-{2-cyclohexyl-1-[2-(5-fluoro-2,3-dihydro-indol-1-yl)-ethylcarbamoyl]-ethyl}-4-(piperidin-4-yloxy)-benzamide]: the inhibition constant (Ki) was less than 1000 nM.

Take `CS(=O)(=O)N1CCC(C(=O)N[C@@H](CC2CCCCC2)C(=O)NCCN2CCc3cc(F)ccc32)CC1` [Compound 77, 1-Methanesulfonyl-piperidine-4-carboxylic acid (S)-{2-cyclohexyl-1-[2-(5-fluoro-2,3-dihydro-indol-1-yl)-ethylcarbamoyl]-ethyl}-amide]: the Ki was less than 1000 nM.

On to `C[C@@H](CNc1ccc(OC(F)(F)F)cc1)NC(=O)[C@H](CC(C)(C)C)NC(=O)c1ccc(-c2cccc(F)c2)o1` [Compound 127, 5-(3-Fluoro-phenyl)-furan-2-carboxylic acid {3,3-dimethyl-1-(S)-[1-(S)-methyl-2-(4-trifluoromethoxy-phenylamino)-ethylcarbamoyl]-butyl}-amide], for which the inhibitory constant (Ki) was less than 100 nM.

Take `C[C@@H](CNc1ccc(OC(F)(F)F)cc1)NC(=O)[C@H](CC1CCCCC1)NC(=O)c1ccc(-c2ccc(F)cc2)o1` [Compound 103, 5-(4-Fluoro-phenyl)-furan-2-carboxylic acid {2-cyclohexyl-1-(S)-[1-(S)-methyl-2-(4-trifluoromethoxy-phenylamino)-ethylcarbamoyl]-ethyl}-amide]: the inhibition constant (Ki) was less than 100 nM.

Turning to `COc1ccc(NCC(C)NC(=O)C(CC2CCCCC2)NC(=O)c2cccc(OC)c2)cc1` [Compound 26, N-{2-Cyclohexyl-(1S)-[2-(4-methoxy-phenylamino)-(1R)-methyl-ethylcarbamoyl]-ethyl}-3-methoxy-benzamide], the inhibition constant Ki is less than 100 nM.

In the case of `C[C@@H](CN1CCc2cc(F)ccc21)NC(=O)[C@H](CC1CCCCC1)NS(=O)(=O)c1ccccc1` [Compound 264, (S,S)-2-Benzenesulfonylamino-3-cyclohexyl-N-[2-(5-fluoro-2,3-dihydro-indol-1-yl)-1-methyl-ethyl]-propionamide], the Ki is less than 100 nM.

`O=C(N[C@@H](CC1CCCC1)C(=O)NCCN1CCc2cc(F)ccc21)c1ccc(-c2cccc(C(F)(F)F)c2)o1` [Compound 200, N-((S)-1-(2-(5-fluoroindolin-1-yl)ethylcarbamoyl)-2-cyclopentylethyl)-5-(3-(trifluoromethyl)phenyl)furan-2-carboxamide]: the Ki is less than 100 nM.

Regarding `C[C@@H](CNc1ccc(OC(F)(F)F)cc1)NC(=O)[C@H](CC1CCCCC1)NC(=O)c1cnn(-c2ccc(F)cc2)c1` [Compound 142, 1-(4-Fluoro-phenyl)-1H-pyrazole-4-carboxylic acid {2-cyclohexyl-1-(S)-[1-(S)-methyl-2-(4-trifluoromethoxy-phenylamino)-ethylcarbamoyl]-ethyl}-amide], the Ki was less than 100 nM.

For `CC(C)(C)C[C@H](NC(=O)OC(C)(C)C)C(=O)N[C@@H](CC#N)CN1CCc2cc(F)ccc21` [Compound 164, {1-(S)-[2-Cyano-1-(S)-(5-fluoro-2,3-dihydro-indol-1-ylmethyl)-ethylcarbamoyl]-3,3-dimethyl-butyl}-carbamic acid tert-butyl ester], the inhibition constant Ki was less than 1000 nM.

For `C[C@@H](CNc1ccc(OC(F)(F)F)cc1)NC(=O)[C@H](CC1CCCCC1)NC(=O)O[C@@H]1CCN(C(=O)OC(C)(C)C)C1` [Compound 185, 3-(R)-{2-Cyclohexyl-1-(S)-[1-(S)-methyl-2-(4-trifluoromethoxy-phenylamino)-ethylcarbamoyl]-ethylcarbamoyloxy}-pyrrolidine-1-carboxylic acid tert-butyl ester], the Ki was less than 1000 nM.

Take `O=C(N[C@@H](Cc1ccc(Cl)cc1)C(=O)NCCN1CCc2cc(F)ccc21)c1ccc(-c2cccc(C(F)(F)F)c2)o1` [Compound 198, N-((S)-1-(2-(5-fluoroindolin-1-yl)ethylcarbamoyl)-2-(4-chlorophenyl)ethyl)-5-(3-(trifluoromethyl)phenyl)furan-2-carboxamide]: the inhibitory constant (Ki) was less than 1000 nM.

For `O=C(N[C@@H](CC1CCCCC1)C(=O)N[C@@H](COCc1ccccc1)CN1CCc2cc(F)ccc21)OCc1ccccc1` [Compound 169], the Ki is less than 100 nM.

`O=C(NCCN1CCc2cc(F)ccc21)[C@H](CC1CCCCC1)NS(=O)(=O)c1cccc2ccccc12` [Compound 228, (S)-3-Cyclohexyl-N-[2-(5-fluoro-2,3-dihydro-indol-1-yl)-ethyl]-2-(naphthalene-1-sulfonylamino)-propionamide]: the Ki was less than 1000 nM.

In the case of `C[C@@H](CN1CCc2cc(F)ccc21)NC(=O)[C@H](CC(C)(C)C)NC(=O)c1ccnnc1` [Compound 178, Pyridazine-4-carboxylic acid {1-(S)-[2-(5-fluoro-2,3-dihydro-indol-1-yl)-1-(S)-methyl-ethylcarbamoyl]-3,3-dimethyl-butyl}-amide], the Ki was less than 100 nM.

In the case of `Cc1occ(C(F)(F)F)c1S(=O)(=O)N[C@@H](CC1CCCCC1)C(=O)N[C@@H](C)CN1CCc2cc(F)ccc21` [Compound 253, (S,S)-3-Cyclohexyl-N-[2-(5-fluoro-2,3-dihydro-indol-1-yl)-1-methyl-ethyl]-2-(2-methyl-4-trifluoromethyl-furan-3-sulfonylamino)-propionamide], the Ki was less than 100 nM.

On to `COc1ccc(NCCNC(=O)[C@H]2CCCC[C@H]2NC(=O)c2cccc(C)c2)cc1` (relative stereo) [Compound 1, N-{cis-2-[2-(4-Methoxy-phenylamino)-ethylcarbamoyl]-cyclohexyl}-3-methyl-benzamide], for which the inhibitory constant (Ki) is less than 10000 nM.

Broadly, the Ki is a measure of affinity in units of concentration, obtained from inhibition or displacement.
